Test results published in ChEMBL document CHEMBL1201862, “PubChem BioAssay data set” (2004).
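Each compound was tested at five concentrations against cells in 96-well plates for 48 hours. GI50: concentration for 50% inhibition of growth.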 Calls of active or inactive are those of the source. Rule as the data show it: active = GI50 up to about 1.1 µM and inactive = higher.

Assays:
Experiment in all cases: growth of human tumour cells (NCI), 48 h
SF-295 = test system: SF-295
UO-31 = test system: UO-31
MDA-MB-231 = test system: MDA-MB-231
Hs-578T = test system: Hs-578T
U-251 = test system: U-251
SK-OV-3 = test system: SK-OV-3
SNB-75 = test system: SNB-75
EKVX = test system: EKVX
MDA-N = test system: MDA-N
SF-268 = test system: SF-268
SN12C = test system: SN12C
SK-MEL-28 = test system: SK-MEL-28
ACHN = test system: ACHN
TK-10 = test system: TK-10
NCI-H23 = test system: NCI-H23
NCI/ADR-RES = test system: NCI/ADR-RES
OVCAR-3 = test system: OVCAR-3
UACC-62 = test system: UACC-62
HT-29 = test system: HT-29
MCF7 = test system: MCF7

SMILES	GI50 (SF-295)	GI50 (UO-31)	GI50 (MDA-MB-231)	GI50 (Hs-578T)	GI50 (U-251)	GI50 (SK-OV-3)	GI50 (SNB-75)	GI50 (EKVX)	GI50 (MDA-N)	GI50 (SF-268)	GI50 (SN12C)	GI50 (SK-MEL-28)	GI50 (ACHN)	GI50 (TK-10)	GI50 (NCI-H23)	GI50 (NCI/ADR-RES)	GI50 (OVCAR-3)	GI50 (UACC-62)	GI50 (HT-29)	GI50 (MCF7)
COC(=O)C1=C(O)CCCC(CCC(C)=O)=C1	> 100 µM (inactive)	39.9 µM (inactive)	73.8 µM (inactive)	> 100 µM (inactive)	43.2 µM (inactive)	> 100 µM (inactive)	76.6 µM (inactive)	83.2 µM (inactive)	31.9 µM (inactive)	> 100 µM (inactive)	41 µM (inactive)	> 100 µM (inactive)	32.4 µM (inactive)	> 100 µM (inactive)	94.4 µM (inactive)	> 100 µM (inactive)	48.8 µM (inactive)	46 µM (inactive)	57.4 µM (inactive)	
Cn1c(-c2ccccc2)cc(-c2ccc3c(c2)OCO3)c1-c1cccs1	> 100 µM (inactive)	> 100 µM (inactive)		> 100 µM (inactive)	> 100 µM (inactive)	> 100 µM (inactive)	> 100 µM (inactive)	> 100 µM (inactive)	> 100 µM (inactive)	> 100 µM (inactive)	> 100 µM (inactive)	> 100 µM (inactive)	> 100 µM (inactive)	> 100 µM (inactive)	64.7 µM (inactive)	> 100 µM (inactive)	> 100 µM (inactive)	> 100 µM (inactive)	> 100 µM (inactive)	> 100 µM (inactive)
COC(=O)c1cc(NC(=O)Cn2c3ccccc3c3ccccc32)cn1C	26.9 µM (inactive)	25 µM (inactive)	20.1 µM (inactive)	14.2 µM (inactive)	26.4 µM (inactive)	25.6 µM (inactive)		34 µM (inactive)	> 100 µM (inactive)	30.6 µM (inactive)	55.3 µM (inactive)	> 100 µM (inactive)	33.7 µM (inactive)	49.7 µM (inactive)	39.3 µM (inactive)	30.3 µM (inactive)	> 100 µM (inactive)	17.1 µM (inactive)	49.9 µM (inactive)	59 µM (inactive)
O=C(O)CCCc1ccc2c(c1)CC1(C2)Cc2ccc(CCCC(=O)O)cc2C1	> 100 µM (inactive)	> 100 µM (inactive)	> 100 µM (inactive)	> 100 µM (inactive)	> 100 µM (inactive)	> 100 µM (inactive)		> 100 µM (inactive)	> 100 µM (inactive)		> 100 µM (inactive)		> 100 µM (inactive)	> 100 µM (inactive)	> 100 µM (inactive)	> 100 µM (inactive)	> 100 µM (inactive)	> 100 µM (inactive)	> 100 µM (inactive)	> 100 µM (inactive)
O=C(C(=C(I)I)c1ccccc1)c1ccccc1	21.7 µM (inactive)	20.8 µM (inactive)		16.1 µM (inactive)		59.6 µM (inactive)		28.8 µM (inactive)	19.1 µM (inactive)	22.6 µM (inactive)	24 µM (inactive)	30.7 µM (inactive)	29.7 µM (inactive)	28.4 µM (inactive)	21 µM (inactive)	28.6 µM (inactive)	20.9 µM (inactive)	18.2 µM (inactive)	33.6 µM (inactive)	49.8 µM (inactive)
CCn1c(O)c(C(=O)NC(C)c2ccc([N+](=O)[O-])cc2)c(=O)n(CC)c1=S (configuration not stated)	1 µM (active)	1.92 µM (inactive)	2.91 µM (inactive)	2.52 µM (inactive)	1.84 µM (inactive)	3.09 µM (inactive)	2.16 µM (inactive)	3.23 µM (inactive)	3.59 µM (inactive)	3.92 µM (inactive)	3.52 µM (inactive)	4.27 µM (inactive)	3.1 µM (inactive)	4.06 µM (inactive)	1.77 µM (inactive)		2.16 µM (inactive)	2.17 µM (inactive)	2.34 µM (inactive)	2.34 µM (inactive)
CCC1c2[nH]c3ccccc3c2C[C@H]2C(=O)N3CCC[C@H]3C(=O)N12 (some centres not stated)	> 100 µM (inactive)	> 100 µM (inactive)	> 100 µM (inactive)	> 100 µM (inactive)	92.5 µM (inactive)	> 100 µM (inactive)		> 100 µM (inactive)	> 100 µM (inactive)	> 100 µM (inactive)	> 100 µM (inactive)	> 100 µM (inactive)	> 100 µM (inactive)	> 100 µM (inactive)	> 100 µM (inactive)	> 100 µM (inactive)	> 100 µM (inactive)	70.6 µM (inactive)	> 100 µM (inactive)	> 100 µM (inactive)
O=C1C(CN2CCCCC2)CCCC1CN1CCCCC1 (configuration not stated)		> 56.2 µM (inactive)	18.5 µM (inactive)	23.3 µM (inactive)	> 100 µM (inactive)	> 100 µM (inactive)		16.2 µM (inactive)	16 µM (inactive)		32.7 µM (inactive)	17.4 µM (inactive)	18 µM (inactive)		22.9 µM (inactive)	18.5 µM (inactive)	18.6 µM (inactive)	> 55.7 µM (inactive)	20.1 µM (inactive)	2.53 µM (inactive)
CCOC(=O)c1c(NCc2ccccc2)n(-c2ccccc2)c(=S)n(-c2ccccc2)c1=O	49.4 µM (inactive)	45.8 µM (inactive)	> 100 µM (inactive)	19.5 µM (inactive)	> 100 µM (inactive)		33.7 µM (inactive)		> 100 µM (inactive)	> 100 µM (inactive)	> 100 µM (inactive)	> 100 µM (inactive)	> 100 µM (inactive)	> 100 µM (inactive)	> 100 µM (inactive)		> 100 µM (inactive)	94.8 µM (inactive)	40.4 µM (inactive)	53.3 µM (inactive)
COc1cc(Nc2nc3ccccc3nc2C(=O)O)cc(OC)c1OC	23.9 µM (inactive)	21.6 µM (inactive)	16.4 µM (inactive)	20.8 µM (inactive)	> 100 µM (inactive)	59.2 µM (inactive)	47.2 µM (inactive)	30.1 µM (inactive)	> 100 µM (inactive)	28.3 µM (inactive)	74.1 µM (inactive)	30.1 µM (inactive)	> 100 µM (inactive)	16.3 µM (inactive)	75.7 µM (inactive)	23 µM (inactive)	45.8 µM (inactive)			
COc1cc2c(C)cc(O)cc2c2cc(O)c(C)cc12	12.9 µM (inactive)	9.66 µM (inactive)	9.66 µM (inactive)	19.1 µM (inactive)	11.2 µM (inactive)	12.9 µM (inactive)		11.7 µM (inactive)	10.2 µM (inactive)	13.7 µM (inactive)	9.84 µM (inactive)		12.4 µM (inactive)	13.3 µM (inactive)	11.5 µM (inactive)	13.5 µM (inactive)	12 µM (inactive)	12 µM (inactive)	14.7 µM (inactive)	10.4 µM (inactive)
